Active and inactive are the calls of the source.
How the values were obtained:
fMet-Leu-Phe receptor = target: T1, fMet-Leu-Phe receptor (Homo sapiens, UniProt P21462); assay: FPR ligands, dose response (AID 519); format: functional
T1 sequence (P21462 whole entry): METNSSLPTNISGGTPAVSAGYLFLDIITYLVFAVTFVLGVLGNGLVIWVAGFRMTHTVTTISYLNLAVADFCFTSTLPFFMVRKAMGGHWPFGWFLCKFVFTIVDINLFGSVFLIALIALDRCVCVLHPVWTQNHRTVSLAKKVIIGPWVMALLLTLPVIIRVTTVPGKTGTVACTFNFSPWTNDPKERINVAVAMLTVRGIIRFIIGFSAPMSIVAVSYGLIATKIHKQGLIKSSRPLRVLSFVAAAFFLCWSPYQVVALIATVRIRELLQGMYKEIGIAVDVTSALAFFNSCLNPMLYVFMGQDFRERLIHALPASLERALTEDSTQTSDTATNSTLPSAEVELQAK

Galanin receptor type 3 = target: T2, Galanin receptor type 3 (Homo sapiens, UniProt O60755); assay: Fluorescence-based cell-based primary high throughput dose response assay to identify antagonists of the Galanin Receptor 3 (GalR3).; format: functional
T2 sequence (O60755 whole entry): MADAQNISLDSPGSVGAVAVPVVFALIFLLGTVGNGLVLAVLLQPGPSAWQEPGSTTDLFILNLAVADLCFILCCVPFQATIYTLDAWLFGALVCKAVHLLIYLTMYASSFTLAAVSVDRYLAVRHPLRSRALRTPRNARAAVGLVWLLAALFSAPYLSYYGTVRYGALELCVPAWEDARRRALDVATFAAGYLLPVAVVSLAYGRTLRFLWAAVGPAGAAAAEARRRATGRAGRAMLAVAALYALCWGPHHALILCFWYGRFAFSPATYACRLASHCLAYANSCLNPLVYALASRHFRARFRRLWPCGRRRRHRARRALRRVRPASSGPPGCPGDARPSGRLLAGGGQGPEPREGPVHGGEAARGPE

cells [1] = format: functional, cell-based; settings: HEK-CNG
[2] = target: DNA dC->dU-editing enzyme APOBEC-3G (Homo sapiens, UniProt Q9HC16); assay: Dose Response confirmation of small molecule APOBEC3G DNA Deaminase Inhibitors via a fluorescence-based single-stranded DNA deaminase assay. [Related pubchem assays (depositor defined):AID493012, AID493028]; format: functional
[3] = ADAM10 inhibitors, peptide cleavage, dose response, biochemical, QFRET (AID 743254);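 note: ADAM10 enzyme with the DM2 quenched FRET peptide as substrate; EDANS fluorescence gain as the protease cuts the substrate; inhibitor potency against ADAM10 proteolytic activity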
[4] = target: Disintegrin and metalloproteinase domain-containing protein 17 (Homo sapiens, UniProt P78536); assay: ADAM17 protease inhibitors, dose response, counter-screen for ADAM10 exosite inhibitor project, biochemical, quenched FRET substrate (AID 743253)
INS1 = assay: beta cell apoptosis inhibitors, cytokine rescue, dose response, luminescence, retest (AID 449756); format: functional, cell-based; settings: Rattus norvegicus;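 note: cell death triggered by IL-1 beta plus TNF-alpha plus IFN-gamma mixture; protective hits raise ATP signal compared with cytokine alone wells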
[5] = human group III sPLA2 inhibitors, dose response, biochemical, QFRET, IC50 (AID 743457);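 note: green fluorescence rise as the enzyme cleaves BODIPY PC-A2 in liposomes; potency for inhibition of the enzyme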
HEK293 = assay: inhibitors of LMP1-driven NF-kB reporter, dose response, cell-based, HEK293, luciferase, cherry-pick (AID 588343); format: functional; settings: Homo sapiens
[6] = A549 cell cytotoxicity, dose response, cytotoxicity control, plate reader, cherry-pick, antagonist series (AID 743412); format: functional, cell-based
[7] = HepG2 cell cytotoxicity, dose response, cytotoxicity control, plate reader, cherry-pick, antagonist series (AID 743416); format: functional, cell-based
[8] = LGR2 antagonists, dose response, cell-based, HEK293, CRE-luciferase reporter, cherry pick, set 2 (AID 743343); format: functional;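 note: transfected cells were stimulated with diluted bursicon conditioned medium after compound addition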
[9] = MC4R antagonists, dose response, counter-screen for LGR2 antagonist project, cell-based, plate reader, cherry pick (AID 743444); format: functional;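 note: transfected HEK 293 cells stimulated with alpha-MSH peptide; potency of inhibitors of the alpha-MSH evoked signal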
[10] = target: T3, Replicative DNA helicase DnaB (Mycobacterium tuberculosis, UniProt P9WMR3); assay: DnaB intein splicing inhibitors, dose response, biochemical, cell-free fluorescence (AID 449749); format: functional
T3 sequence (P9WMR3 whole entry): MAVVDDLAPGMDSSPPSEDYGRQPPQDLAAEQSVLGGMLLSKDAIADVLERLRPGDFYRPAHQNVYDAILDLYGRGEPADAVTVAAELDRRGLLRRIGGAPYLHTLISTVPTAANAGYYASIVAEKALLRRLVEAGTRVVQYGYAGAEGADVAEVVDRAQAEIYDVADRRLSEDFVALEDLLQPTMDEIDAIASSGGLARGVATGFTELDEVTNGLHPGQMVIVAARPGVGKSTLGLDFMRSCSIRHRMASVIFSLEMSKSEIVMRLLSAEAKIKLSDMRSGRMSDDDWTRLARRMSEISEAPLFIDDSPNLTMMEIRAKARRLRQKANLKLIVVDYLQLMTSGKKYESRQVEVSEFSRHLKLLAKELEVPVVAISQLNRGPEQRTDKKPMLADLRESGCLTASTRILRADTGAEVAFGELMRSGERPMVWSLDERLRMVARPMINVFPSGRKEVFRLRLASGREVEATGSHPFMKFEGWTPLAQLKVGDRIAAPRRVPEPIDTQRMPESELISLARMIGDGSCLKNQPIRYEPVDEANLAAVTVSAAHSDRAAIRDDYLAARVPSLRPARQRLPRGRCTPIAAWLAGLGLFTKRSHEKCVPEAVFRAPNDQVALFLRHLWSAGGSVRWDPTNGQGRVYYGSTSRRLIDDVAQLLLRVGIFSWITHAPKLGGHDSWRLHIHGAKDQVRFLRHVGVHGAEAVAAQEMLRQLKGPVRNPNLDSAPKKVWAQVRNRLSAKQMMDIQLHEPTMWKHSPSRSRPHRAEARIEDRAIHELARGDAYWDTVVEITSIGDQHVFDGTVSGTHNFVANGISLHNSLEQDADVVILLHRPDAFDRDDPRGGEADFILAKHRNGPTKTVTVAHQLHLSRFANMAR

Protein RecA = target: T4, Protein RecA (Mycobacterium tuberculosis, UniProt P9WHJ3); assay: Fluorescence Cell-Free Homogeneous Dose Retest to Identify Inhibitors of RecA-Intein Splicing Activity. [Related pubchem assays (depositor defined):AID2097, AID2223, AID489010, AID492950]; format: functional
T4 sequence (P9WHJ3 whole entry): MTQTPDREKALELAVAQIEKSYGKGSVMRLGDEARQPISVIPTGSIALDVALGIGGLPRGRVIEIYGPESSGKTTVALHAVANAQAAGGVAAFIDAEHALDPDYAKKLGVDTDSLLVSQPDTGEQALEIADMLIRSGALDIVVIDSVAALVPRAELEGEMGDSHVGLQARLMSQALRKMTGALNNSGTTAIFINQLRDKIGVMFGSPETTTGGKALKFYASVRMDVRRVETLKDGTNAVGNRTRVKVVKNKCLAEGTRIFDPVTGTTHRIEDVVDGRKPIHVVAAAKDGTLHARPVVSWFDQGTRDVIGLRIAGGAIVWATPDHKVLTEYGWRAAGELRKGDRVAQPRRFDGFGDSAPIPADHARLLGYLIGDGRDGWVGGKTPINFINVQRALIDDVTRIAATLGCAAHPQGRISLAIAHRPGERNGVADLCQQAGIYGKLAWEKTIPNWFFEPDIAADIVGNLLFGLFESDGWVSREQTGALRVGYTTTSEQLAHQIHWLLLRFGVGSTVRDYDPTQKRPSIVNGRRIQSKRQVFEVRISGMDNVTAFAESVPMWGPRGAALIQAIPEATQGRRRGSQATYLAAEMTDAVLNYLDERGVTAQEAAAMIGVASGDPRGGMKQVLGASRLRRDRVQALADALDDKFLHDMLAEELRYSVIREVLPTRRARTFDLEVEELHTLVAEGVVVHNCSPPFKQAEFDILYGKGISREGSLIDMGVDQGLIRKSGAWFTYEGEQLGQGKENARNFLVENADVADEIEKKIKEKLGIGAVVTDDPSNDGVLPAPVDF

cells [11] = format: functional, cell-based
[12] = target: T5, Trace amine-associated receptor 1 (Homo sapiens, UniProt Q96RJ0); assay: Fluorescence-based cell-based high throughput dose response assay to identify agonists of the human trace amine associated receptor 1 (TAAR1).; format: functional
T5 sequence (Q96RJ0 whole entry): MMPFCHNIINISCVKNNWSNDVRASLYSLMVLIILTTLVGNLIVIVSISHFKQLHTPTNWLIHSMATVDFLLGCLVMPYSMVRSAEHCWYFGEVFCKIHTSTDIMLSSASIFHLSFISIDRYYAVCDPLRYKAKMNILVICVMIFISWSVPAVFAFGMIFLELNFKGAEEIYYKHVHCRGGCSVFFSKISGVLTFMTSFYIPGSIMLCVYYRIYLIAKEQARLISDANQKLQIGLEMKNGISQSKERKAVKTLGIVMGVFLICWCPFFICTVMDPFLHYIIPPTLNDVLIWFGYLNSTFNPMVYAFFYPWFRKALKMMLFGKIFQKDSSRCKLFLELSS

[13] = target: T5, Trace amine-associated receptor 1; assay: Counterscreen for agonists of the human trace amine associated receptor 1 (hTAAR1): Fluorescence-based cell-based high throughput dose response assay to identify hTAAR1 agonist that also desensitize TAAR1 receptor response.; format: functional
cells [14] = format: functional, cell-based; remark: listed apart in the source

Sequence of Disintegrin and metalloproteinase domain-containing protein 17 (P78536 whole entry, the tested form may be a part): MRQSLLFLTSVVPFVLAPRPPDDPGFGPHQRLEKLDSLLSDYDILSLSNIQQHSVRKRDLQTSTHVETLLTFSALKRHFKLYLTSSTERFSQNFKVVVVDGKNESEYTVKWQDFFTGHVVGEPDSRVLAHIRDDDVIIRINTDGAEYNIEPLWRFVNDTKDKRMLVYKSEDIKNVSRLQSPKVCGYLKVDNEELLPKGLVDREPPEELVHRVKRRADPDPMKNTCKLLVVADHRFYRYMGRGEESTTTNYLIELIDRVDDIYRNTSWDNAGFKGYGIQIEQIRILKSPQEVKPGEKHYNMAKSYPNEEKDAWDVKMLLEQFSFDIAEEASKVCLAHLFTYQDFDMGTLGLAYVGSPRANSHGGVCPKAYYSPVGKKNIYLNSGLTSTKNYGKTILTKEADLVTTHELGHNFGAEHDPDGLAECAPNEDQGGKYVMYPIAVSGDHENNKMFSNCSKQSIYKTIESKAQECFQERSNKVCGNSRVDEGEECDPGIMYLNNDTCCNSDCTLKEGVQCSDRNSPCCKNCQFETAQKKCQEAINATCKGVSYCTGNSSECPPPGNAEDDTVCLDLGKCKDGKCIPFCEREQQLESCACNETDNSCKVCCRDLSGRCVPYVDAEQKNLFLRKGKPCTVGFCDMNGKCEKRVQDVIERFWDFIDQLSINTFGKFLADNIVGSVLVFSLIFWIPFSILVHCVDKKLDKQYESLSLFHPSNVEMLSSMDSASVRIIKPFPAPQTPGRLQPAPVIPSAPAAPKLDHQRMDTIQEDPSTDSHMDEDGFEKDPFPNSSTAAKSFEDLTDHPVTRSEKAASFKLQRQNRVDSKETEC
Sequence of DNA dC->dU-editing enzyme APOBEC-3G (Q9HC16 whole entry): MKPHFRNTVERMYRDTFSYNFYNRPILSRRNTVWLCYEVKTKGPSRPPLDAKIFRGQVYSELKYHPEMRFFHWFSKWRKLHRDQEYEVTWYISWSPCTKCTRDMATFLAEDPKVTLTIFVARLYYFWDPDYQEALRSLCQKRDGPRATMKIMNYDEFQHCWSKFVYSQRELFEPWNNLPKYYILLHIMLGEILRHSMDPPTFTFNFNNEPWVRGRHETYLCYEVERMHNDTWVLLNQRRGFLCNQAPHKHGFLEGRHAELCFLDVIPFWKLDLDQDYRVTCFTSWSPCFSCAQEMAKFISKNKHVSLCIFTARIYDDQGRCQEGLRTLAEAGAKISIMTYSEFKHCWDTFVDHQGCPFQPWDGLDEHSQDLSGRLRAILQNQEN

SMILES: COc1cc(C2C(C(=O)c3ccc(C)o3)=C(O)C(=O)N2Cc2cccnc2)ccc1O (stereo not given)
- Ki (fMet-Leu-Phe receptor): > 66.7 µM (inactive)

SMILES: CCOC(=O)CCN(c1ccccc1)S(=O)(=O)c1ccc(-c2ccc(O)nn2)s1
- IC50 (Galanin receptor type 3): 4.41 µM (active)
- EC50 (cells [1]): > 29.9 µM (inactive)

SMILES: CCN(CC)c1ccc(NC(=O)COc2ccccc2C)cc1S(=O)(=O)Nc1ccccc1OC
- IC50 [2]: 70.1 µM (active)
- IC50 [3]: > 69.5 µM (inactive)
- IC50 [4]: > 69.5 µM (inactive)

SMILES: Cc1ccc(C(=O)NC(=S)/C=C2\N(C)c3ccccc3C2(C)C)cc1
- AC50 (INS1): 2.33 µM (active)
- IC50 [5]: > 122 µM (inactive)

SMILES: Cc1ccc(C(=O)NCCc2cccs2)cc1
- AC50 (HEK293): 2.28 µM (active)
- AC50 [6]: > 52 µM (inactive)
- AC50 [7]: > 52 µM (inactive)
- AC50 [8]: 3.13 µM (active)
- AC50 [9]: 3.74 µM (active)

SMILES: CSCCC1C(C#N)=C(N)Oc2[nH]nc(-c3cccs3)c21 (stereo not given)
- AC50 [10]: 3.12 µM (active)
- EC50 (Protein RecA): 1.43 µM (active)
- Ki (fMet-Leu-Phe receptor): > 66.7 µM (inactive)

SMILES: Cc1cccc(C(CC(=O)NCCc2ccccc2)c2ccccc2)c1O (stereo not given)
- IC50 (cells [11]): > 29.9 µM (inactive)
- EC50 [12]: 3.5 µM (active)
- IC50 [13]: 4.62 µM (active)
- EC50 (cells [14]): > 29.9 µM (inactive)
